Data as given in patent publication US12077503B2, “Substituted cyclic amides and their use as herbicides” (FMC CORPORATION, priority 2015, dated 2024).

Tests used:
Assay type in all cases: in vivo
[1] = test system: giant foxtail (Setaria faberi); assay: Test G Post-Emergence Protocol; conditions: Setaria faberi, post-emergence, 312 h; for pest or weed control at 15.625 g/ha: 15.625 g ai/ha, evaluated after 13 days (100=total damage to plant; 0=no damage to plant), read-out: Foxtail, Giant damage rating; for pest or weed control at 62.5 g/ha: 62.5 g ai/ha, read-out: Foxtail, Giant damage rating (100=total damage to plant; 0=no damage to plant); for pest or weed control at 62.5 g/ha / pest or weed control at 250 g/ha: evaluated after 13 days; for pest or weed control at 250 g/ha: 250 g ai/ha, read-out: damage to plant, Foxtail, Giant (100=total damage to plant; 0=no damage to plant)
Method: (§1) Seeds of corn (Zea mays), giant foxtail (Setaria faberi), barnyardgrass (Echinochloa crus-galli), ivy-leaved morning glory (Ipomoea hederacea), redroot pigweed (Amaranthus retroflexus) and velvetleaf (Abutilon theophrasti) were sown in standard soil in pots. After cultivation for 8 days under controlled conditions in a glasshouse (at 24/16° C., day/night; 14 hours light; 65% humidity), the plants were sprayed with an aqueous spray solution derived from the formulation of the technical active ingredient in acetone/water (50:50) solution containing 0.5% Tween 20 (polyoxyethylene sorbitan monolaurate, CAS RN 9005-64-5) to give a final dose of 15.625, 62.5 or 250 g/ha of test compound.
(§2) The test plants were then grown on under controlled conditions in a glasshouse (at 24/16° C., day/night; 14 hours light; 65% humidity) and watered twice daily. After 13 days the test was evaluated (100=total damage to plant; 0=no damage to plant). A dash (-) means no test result.

[2] = test system: velvetleaf (Abutilon theophrasti); assay: Test G Post-Emergence Protocol; conditions: Abutilon theophrasti, post-emergence, 312 h; for pest or weed control at 15.625 g/ha: 15.625 g ai/ha, evaluated after 13 days (100=total damage to plant; 0=no damage to plant), read-out: Velvetleaf damage rating; for pest or weed control at 62.5 g/ha: 62.5 g ai/ha, read-out: Velvetleaf damage rating (100=total damage to plant; 0=no damage to plant); for pest or weed control at 62.5 g/ha / pest or weed control at 250 g/ha: evaluated after 13 days; for pest or weed control at 250 g/ha: 250 g ai/ha, read-out: damage to plant, Velvetleaf (100=total damage to plant; 0=no damage to plant)
Method: as §1, §2

[3] = test system: redroot pigweed (Amaranthus retroflexus); assay: Test G Post-Emergence Protocol; conditions: Amaranthus retroflexus, post-emergence, 312 h; for pest or weed control at 15.625 g/ha: 15.625 g ai/ha, evaluated after 13 days (100=total damage to plant; 0=no damage to plant), read-out: Pigweed, Redroot damage rating; for pest or weed control at 62.5 g/ha: 62.5 g ai/ha, read-out: Pigweed, Redroot damage rating (100=total damage to plant; 0=no damage to plant); for pest or weed control at 62.5 g/ha / pest or weed control at 250 g/ha: evaluated after 13 days; for pest or weed control at 250 g/ha: 250 g ai/ha, read-out: damage to plant, Pigweed, Redroot (100=total damage to plant; 0=no damage to plant)
Method: as §1, §2

[4] = test system: ivy-leaved morning glory (Ipomoea hederacea); assay: Test G Post-Emergence Protocol; conditions: Ipomoea, post-emergence, 312 h; for pest or weed control at 15.625 g/ha: 15.625 g ai/ha, evaluated after 13 days (100=total damage to plant; 0=no damage to plant), read-out: Morningglory, Ivy-leaved damage rating; for pest or weed control at 62.5 g/ha: 62.5 g ai/ha, read-out: Morningglory, Ivy-leaved damage rating (100=total damage to plant; 0=no damage to plant); for pest or weed control at 62.5 g/ha / pest or weed control at 250 g/ha: evaluated after 13 days; for pest or weed control at 250 g/ha: 250 g ai/ha, read-out: damage to plant, Morningglory, Ivy-leaved (100=total damage to plant; 0=no damage to plant)
Method: as §1, §2

corn (Zea mays) [5] = assay: Test G Post-Emergence Protocol; conditions: Zea mays, post-emergence, 312 h; for plant injury at 15.625 g/ha: 15.625 g ai/ha, evaluated after 13 days (100=total damage to plant; 0=no damage to plant), read-out: Corn damage rating; for plant injury at 62.5 g/ha: 62.5 g ai/ha, read-out: Corn damage rating (100=total damage to plant; 0=no damage to plant); for plant injury at 62.5 g/ha / plant injury at 250 g/ha: evaluated after 13 days; for plant injury at 250 g/ha: 250 g ai/ha, read-out: damage to plant, Corn (100=total damage to plant; 0=no damage to plant)
Method: as §1, §2

[6] = test system: barnyardgrass (Echinochloa crus-galli); assay: Test G Post-Emergence Protocol; conditions: Echinochloa crus-galli, post-emergence, 312 h; for pest or weed control at 15.625 g/ha: 15.625 g ai/ha, evaluated after 13 days (100=total damage to plant; 0=no damage to plant), read-out: Barnyardgrass damage rating; for pest or weed control at 62.5 g/ha: 62.5 g ai/ha, read-out: Barnyardgrass damage rating (100=total damage to plant; 0=no damage to plant); for pest or weed control at 62.5 g/ha / pest or weed control at 250 g/ha: evaluated after 13 days; for pest or weed control at 250 g/ha: 250 g ai/ha, read-out: damage to plant, Barnyardgrass (100=total damage to plant; 0=no damage to plant)
Method: as §1, §2

[7] = test system: giant foxtail (Setaria faberi); assay: Test G Pre-Emergence Protocol; conditions: Setaria faberi, pre-emergence, 312 h, evaluated after 13 days; for pest or weed control at 15.625 g/ha: 15.625 g ai/ha; for pest or weed control at 15.625 g/ha / pest or weed control at 250 g/ha: read-out: Foxtail, Giant damage rating (100=total damage to plant; 0=no damage to plant); for pest or weed control at 62.5 g/ha: 62.5 g ai/ha, 100=total damage to plant, 0=no damage to plant, read-out: plant damage rating, Foxtail, Giant; for pest or weed control at 250 g/ha: 250 g ai/ha
Method in brief: (§3)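 Scores are visual damage ratings from 0 (no damage) to 100 (total plant kill), taken 13 days after treatment. Compound was sprayed one day post-sowing at 15.625, 62.5 or 250 g/ha in 50:50 acetone/water with 0.5% Tween 20.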

[8] = test system: velvetleaf (Abutilon theophrasti); assay: Test G Pre-Emergence Protocol; conditions: Abutilon theophrasti, pre-emergence, 312 h, evaluated after 13 days; for pest or weed control at 15.625 g/ha: 15.625 g ai/ha; for pest or weed control at 15.625 g/ha / pest or weed control at 250 g/ha: read-out: Velvetleaf damage rating (100=total damage to plant; 0=no damage to plant); for pest or weed control at 62.5 g/ha: 62.5 g ai/ha, 100=total damage to plant, 0=no damage to plant, read-out: plant damage rating, Velvetleaf; for pest or weed control at 250 g/ha: 250 g ai/ha
Method in brief: as §3

[9] = test system: redroot pigweed (Amaranthus retroflexus); assay: Test G Pre-Emergence Protocol; conditions: Amaranthus retroflexus, pre-emergence, 312 h, evaluated after 13 days; for pest or weed control at 15.625 g/ha: 15.625 g ai/ha; for pest or weed control at 15.625 g/ha / pest or weed control at 250 g/ha: read-out: Pigweed, Redroot damage rating (100=total damage to plant; 0=no damage to plant); for pest or weed control at 62.5 g/ha: 62.5 g ai/ha, 100=total damage to plant, 0=no damage to plant, read-out: plant damage rating, Pigweed, Redroot; for pest or weed control at 250 g/ha: 250 g ai/ha
Method in brief: as §3

[10] = test system: ivy-leaved morning glory (Ipomoea hederacea); assay: Test G Pre-Emergence Protocol; conditions: Ipomoea, pre-emergence, 312 h, evaluated after 13 days; for pest or weed control at 15.625 g/ha: 15.625 g ai/ha, read-out: Morning-glory, Ivy-leaved damage rating (100=total damage to plant; 0=no damage to plant); for pest or weed control at 62.5 g/ha: 62.5 g ai/ha, 100=total damage to plant, 0=no damage to plant, read-out: plant damage rating, Morningglory, Ivy-leaved; for pest or weed control at 250 g/ha: 250 g ai/ha, read-out: Morningglory, Ivy-leaved damage rating (100=total damage to plant; 0=no damage to plant)
Method in brief: as §3

corn (Zea mays) [11] = assay: Test G Pre-Emergence Protocol; conditions: Zea mays, pre-emergence, 312 h, evaluated after 13 days; for plant injury at 15.625 g/ha: 15.625 g ai/ha; for plant injury at 15.625 g/ha / plant injury at 250 g/ha: read-out: Corn damage rating (100=total damage to plant; 0=no damage to plant); for plant injury at 62.5 g/ha: 62.5 g ai/ha, 100=total damage to plant, 0=no damage to plant, read-out: plant damage rating, Corn; for plant injury at 250 g/ha: 250 g ai/ha
Method in brief: as §3

[12] = test system: barnyardgrass (Echinochloa crus-galli); assay: Test G Pre-Emergence Protocol; conditions: Echinochloa crus-galli, pre-emergence, 312 h, evaluated after 13 days; for pest or weed control at 15.625 g/ha: 15.625 g ai/ha, read-out: Barnyard grass damage rating (100=total damage to plant; 0=no damage to plant); for pest or weed control at 62.5 g/ha: 62.5 g ai/ha, 100=total damage to plant, 0=no damage to plant, read-out: plant damage rating, Barnyardgrass; for pest or weed control at 250 g/ha: 250 g ai/ha, read-out: Barnyardgrass damage rating (100=total damage to plant; 0=no damage to plant)
Method in brief: as §3

Compound	pest or weed control at 15.625 g/ha [1] [%]	pest or weed control at 62.5 g/ha [1] [%]	pest or weed control at 250 g/ha [1] [%]	pest or weed control at 15.625 g/ha [2] [%]	pest or weed control at 62.5 g/ha [2] [%]	pest or weed control at 250 g/ha [2] [%]	pest or weed control at 15.625 g/ha [3] [%]	pest or weed control at 62.5 g/ha [3] [%]	pest or weed control at 250 g/ha [3] [%]	pest or weed control at 15.625 g/ha [4] [%]	pest or weed control at 62.5 g/ha [4] [%]	pest or weed control at 250 g/ha [4] [%]	plant injury at 15.625 g/ha (corn (Zea mays) [5]) [%]	plant injury at 62.5 g/ha (corn (Zea mays) [5]) [%]	plant injury at 250 g/ha (corn (Zea mays) [5]) [%]	pest or weed control at 15.625 g/ha [6] [%]	pest or weed control at 62.5 g/ha [6] [%]	pest or weed control at 250 g/ha [6] [%]	pest or weed control at 15.625 g/ha [7] [%]	pest or weed control at 62.5 g/ha [7] [%]	other results
CN1C[C@H](c2ccc(C(C)(C)C)cc2)[C@@H](C(=O)Nc2ccccc2F)C1=O (racemic) [Compound 1409]	0	0	40	0	0	10	0	0	10	0	0	0	0	0	10	0	10	30	0	0	pest or weed control at 250 g/ha [7]: 40%; pest or weed control at 15.625 g/ha [8]: 0%; pest or weed control at 62.5 g/ha [8]: 0%; pest or weed control at 250 g/ha [8]: 0%; pest or weed control at 15.625 g/ha [9]: 0%; pest or weed control at 62.5 g/ha [9]: 0%; pest or weed control at 250 g/ha [9]: 0%; pest or weed control at 15.625 g/ha [10]: 0%; pest or weed control at 62.5 g/ha [10]: 0%; pest or weed control at 250 g/ha [10]: 0%; plant injury at 15.625 g/ha (corn (Zea mays) [11]): 0%; plant injury at 62.5 g/ha (corn (Zea mays) [11]): 0%; plant injury at 250 g/ha (corn (Zea mays) [11]): 0%; pest or weed control at 15.625 g/ha [12]: 0%; pest or weed control at 62.5 g/ha [12]: 0%; pest or weed control at 250 g/ha [12]: 10%
Cc1ccc(NC(=O)[C@H]2C(=O)N(C)C[C@@H]2c2ccc(C(F)(F)F)cc2)c(C)c1 (racemic) [Compound 1410]	0	0	50	0	0	0	0	0	10	0	0	20	0	0	10	0	0	20	0	0	pest or weed control at 250 g/ha [7]: 80%; pest or weed control at 15.625 g/ha [8]: 0%; pest or weed control at 62.5 g/ha [8]: 10%; pest or weed control at 250 g/ha [8]: 20%; pest or weed control at 15.625 g/ha [9]: 0%; pest or weed control at 62.5 g/ha [9]: 20%; pest or weed control at 250 g/ha [9]: 10%; pest or weed control at 15.625 g/ha [10]: 0%; pest or weed control at 62.5 g/ha [10]: 0%; pest or weed control at 250 g/ha [10]: 10%; plant injury at 15.625 g/ha (corn (Zea mays) [11]): 0%; plant injury at 62.5 g/ha (corn (Zea mays) [11]): 0%; plant injury at 250 g/ha (corn (Zea mays) [11]): 0%; pest or weed control at 15.625 g/ha [12]: 0%; pest or weed control at 62.5 g/ha [12]: 0%; pest or weed control at 250 g/ha [12]: 20%
